PMC7145423, “Cooperative enzymatic control of N-acyl amino acids by PM20D1 and FAAH” (eLife, 2020)

Experiments:
Format in all cases: biochemical
PM20D1-flag [1] = biological target: T1, PM20D1-flag (Mus musculus, UniProt Q8C165); assay: hydrolysis, LC-MS; conditions: 100 µM substrate, 100 µg conditioned medium protein, PBS, 1 hr 37°C
T1 construct: flag-tagged, secreted, conditioned medium of transfected HEK293T cells
T1 sequence (Q8C165 25-503): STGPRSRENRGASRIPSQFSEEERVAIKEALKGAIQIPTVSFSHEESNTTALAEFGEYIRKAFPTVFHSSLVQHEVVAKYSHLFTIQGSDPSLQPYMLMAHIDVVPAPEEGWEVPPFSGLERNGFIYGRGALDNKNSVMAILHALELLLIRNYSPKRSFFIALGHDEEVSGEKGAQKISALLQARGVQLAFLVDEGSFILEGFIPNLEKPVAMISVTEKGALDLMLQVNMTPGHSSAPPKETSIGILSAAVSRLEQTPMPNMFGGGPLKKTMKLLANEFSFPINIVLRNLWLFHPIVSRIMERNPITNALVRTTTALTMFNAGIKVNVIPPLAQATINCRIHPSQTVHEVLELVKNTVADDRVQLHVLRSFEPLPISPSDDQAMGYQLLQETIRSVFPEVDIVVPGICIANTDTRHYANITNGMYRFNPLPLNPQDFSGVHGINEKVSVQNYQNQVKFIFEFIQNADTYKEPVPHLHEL

FAAH-flag = biological target: T2, FAAH-flag (Mus musculus, UniProt O08914); assay: hydrolysis, LC-MS; conditions: 100 µM substrate, 100 µg lysate protein, PBS, 1 hr 37°C
T2 construct: C-terminal flag tag, transient transfection in HEK293T, cell lysate
T2 sequence (O08914 1-579): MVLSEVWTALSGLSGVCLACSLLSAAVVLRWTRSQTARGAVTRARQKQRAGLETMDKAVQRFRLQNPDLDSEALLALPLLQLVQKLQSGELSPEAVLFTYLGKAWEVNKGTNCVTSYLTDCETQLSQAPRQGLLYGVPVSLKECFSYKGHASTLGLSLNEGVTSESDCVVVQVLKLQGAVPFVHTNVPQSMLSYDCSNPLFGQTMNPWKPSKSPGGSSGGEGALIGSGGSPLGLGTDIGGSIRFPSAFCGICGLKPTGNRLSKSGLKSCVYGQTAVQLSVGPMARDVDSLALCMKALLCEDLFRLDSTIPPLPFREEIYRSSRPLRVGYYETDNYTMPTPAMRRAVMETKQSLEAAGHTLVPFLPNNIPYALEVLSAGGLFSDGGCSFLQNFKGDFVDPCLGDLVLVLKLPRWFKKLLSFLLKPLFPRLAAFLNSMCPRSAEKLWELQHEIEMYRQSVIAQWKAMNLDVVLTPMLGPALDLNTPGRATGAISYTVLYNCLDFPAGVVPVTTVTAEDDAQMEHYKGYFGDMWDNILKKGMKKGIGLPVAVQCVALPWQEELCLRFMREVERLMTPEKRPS

PM20D1-flag [2] = biological target: T1, PM20D1-flag; assay: condensation with amino acid (synthase direction), LC-MS; conditions: co-substrates Gly, Ser or Phe; PBS, 1 hr 37°C

With `CCCCC/C=C\C/C=C\C/C=C\C/C=C\CCCC(=O)NCC(=O)O` [C20:4-Gly] as the compound, how does the “hydrolysis, LC-MS” value (PM20D1-flag [1]) read?
The value was “PM20D1 exhibited robust hydrolysis activity only on C20:4-Gly”.

Which “hydrolysis, LC-MS” value (FAAH-flag) does the source give for `CCCCC/C=C\C/C=C\C/C=C\C/C=C\CCCC(=O)N[C@@H](CO)C(=O)O` [C20:4-Ser] here?
Its value is “A strong preference was observed for C20:4-Ser over the other three N-acyl amino acid substrates”.

For `CCCCC/C=C\C/C=C\C/C=C\C/C=C\CCCC(=O)NCCO` [anandamide], which “hydrolysis, LC-MS” value (FAAH-flag) is on record?
The value was “FAAH showed robust hydrolysis activity with anandamide as a substrate”.

`CCCCC/C=C\C/C=C\C/C=C\C/C=C\CCCC(=O)O` [arachidonic acid] was tested. Which “condensation with amino acid (synthase direction), LC-MS” value (PM20D1-flag [2]) did it give?
The value was “PM20D1 also efficiently catalyzed the condensation of arachidonic acid with all three”.
